Activity calls are given as the source filed them. The rule behind the calls is not given here.

In the data set the test system is CCRIS mutagenicity, Ames/micronucleus/aberration tests. Nature of the data set: CCRIS mutagenicity studies.
Where [1] appears, read: Test System: AMES SALMONELLA TYPHIMURIUM, Strain/Indicator: TA98, Metabolic Activation: NONE, Method: STANDARD PLATE.
Where [2] appears, read: Test System: AMES SALMONELLA TYPHIMURIUM, Strain/Indicator: TA100, Metabolic Activation: NONE, Method: STANDARD PLATE.
Where [3] appears, read: Test System: AMES SALMONELLA TYPHIMURIUM, Strain/Indicator: TA1535, Metabolic Activation: NONE, Method: STANDARD PLATE.
Setting [4] is: Test System: E. COLI, Strain/Indicator: WP2 UVRA, Metabolic Activation: NONE, Method: STANDARD PLATE.
Where [5] appears, read: Test System: AMES SALMONELLA TYPHIMURIUM, Strain/Indicator: TA1535, Metabolic Activation: NONE, Method: PREINCUBATION
Where [6] appears, read: Test System: AMES SALMONELLA TYPHIMURIUM, Strain/Indicator: TA98, Metabolic Activation: NONE, Method: PREINCUBATION
Where [7] appears, read: Test System: AMES SALMONELLA TYPHIMURIUM, Strain/Indicator: TA100, Metabolic Activation: NONE, Method: PREINCUBATION
The mark [8] stands for this setting: Test System: AMES SALMONELLA TYPHIMURIUM, Strain/Indicator: TA1537, Metabolic Activation: NONE, Method: PREINCUBATION

Regarding `CO/N=C(\C(=O)N[C@@H]1C(=O)N2C(C(=O)[O-])=C(C[n+]3ccn4ncccc43)CS[C@H]12)c1nsc(N)n1`, the mutagenic call is “inactive; negative” under setting [1]; “inactive; negative” (Test System: AMES SALMONELLA TYPHIMURIUM, Strain/Indicator: TA98, Metabolic Activation: RAT, LIVER, S-9, SODIUM PHENOBARBITAL AND 5,6-BENZOFLAVONE, Method: STANDARD PLATE); “inactive; negative” under setting [2]; “inactive; negative” (Test System: AMES SALMONELLA TYPHIMURIUM, Strain/Indicator: TA100, Metabolic Activation: RAT, LIVER, S-9, SODIUM PHENOBARBITAL AND 5,6-BENZOFLAVONE, Method: STANDARD PLATE); “inactive; negative” under setting [3]; “inactive; negative” (Test System: AMES SALMONELLA TYPHIMURIUM, Strain/Indicator: TA1535, Metabolic Activation: RAT, LIVER, S-9, SODIUM PHENOBARBITAL AND 5,6-BENZOFLAVONE, Method: STANDARD PLATE). Also, the mutagenic call (Test System: AMES SALMONELLA TYPHIMURIUM, Strain/Indicator: TA1537, Metabolic Activation: NONE, Method: STANDARD PLATE) is “inactive; negative”; the mutagenic call (Test System: AMES SALMONELLA TYPHIMURIUM, Strain/Indicator: TA1537, Metabolic Activation: RAT, LIVER, S-9, SODIUM PHENOBARBITAL AND 5,6-BENZOFLAVONE, Method: STANDARD PLATE) was “inactive; negative”; the mutagenic call under setting [4] was “inactive; negative”; the mutagenic call (Test System: E. COLI, Strain/Indicator: WP2 UVRA, Metabolic Activation: RAT, LIVER, S-9, SODIUM PHENOBARBITAL AND 5,6-BENZOFLAVONE, Method: STANDARD PLATE) is “inactive; negative”.

As to `NCCCNCCCCN(CCCN)/[N+]([O-])=N/O`, the mutagenic call runs as follows: under setting [5], “active; positive”; under setting [3], “active; positive”; (Test System: CHINESE HAMSTER OVARY, Strain/Indicator: CHO-K1-BH4 (HGPRT)/6-THIOGUANINE, Metabolic Activation: NONE) “active; positive”; (Test System: E. COLI, Strain/Indicator: WP2 UVRA (PKM101), Metabolic Activation: NONE, Method: STANDARD PLATE) “active; positive”; (Test System: E. COLI, Strain/Indicator: WP2 UVRA/OXYR (PKM101), Metabolic Activation: NONE, Method: STANDARD PLATE) “active; positive”; (Test System: E. COLI, Strain/Indicator: WP2 UVRA/UMUDC, Metabolic Activation: NONE, Method: STANDARD PLATE) “active; positive”. Also, the mutagenic call reads like this: under setting [4], “active; positive”; (Test System: MOUSE LYMPHOMA, Strain/Indicator: L5178Y (TK+/TK-), Metabolic Activation: NONE, Method: SUSPENSION/PLATE) “active; positive”.

For `CN1CCc2cc3c(c4c2[C@H]1[C@H](O)c1ccccc1-4)OCO3`, the mutagenic call was “active; positive” (Test System: AMES SALMONELLA TYPHIMURIUM, Strain/Indicator: TA98, Metabolic Activation: RAT, LIVER, S-9, PHENOBARBITAL AND BETA-NAPHTHOFLAVONE, Method: PREINCUBATION) and “active; positive” (Test System: AMES SALMONELLA TYPHIMURIUM, Strain/Indicator: TA100, Metabolic Activation: RAT, LIVER, S-9, PHENOBARBITAL AND BETA-NAPHTHOFLAVONE, Method: PREINCUBATION).

Regarding `CN(N)c1ccn([C@@H]2O[C@H](CO)[C@@H](O)[C@H]2O)c(=O)n1`, the mutagenic call (Test System: CHINESE HAMSTER V-79, Strain/Indicator: V-79/6-THIOGUANINE, Metabolic Activation: NONE, Method: REPLATING) is “inactive; negative”.

Take `COC(=O)C1=C(C)NC(C)=C(C(=O)OC/C=C/c2ccccc2)C1c1cccc([N+](=O)[O-])c1` (centres undefined): the mutagenic call is, setting by setting: under setting [6], “inactive; negative”; (Test System: AMES SALMONELLA TYPHIMURIUM, Strain/Indicator: TA98, Metabolic Activation: RAT, LIVER, S-9, PHENOBARBITAL AND 5,6-BENZOFLAVONE, Method: PREINCUBATION) “inactive; negative”; under setting [7], “inactive; negative”; (Test System: AMES SALMONELLA TYPHIMURIUM, Strain/Indicator: TA100, Metabolic Activation: RAT, LIVER, S-9, PHENOBARBITAL AND 5,6-BENZOFLAVONE, Method: PREINCUBATION) “inactive; negative”; under setting [5], “inactive; negative”; (Test System: AMES SALMONELLA TYPHIMURIUM, Strain/Indicator: TA1535, Metabolic Activation: RAT, LIVER, S-9, PHENOBARBITAL AND 5,6-BENZOFLAVONE, Method: PREINCUBATION) “inactive; negative”. Also, the mutagenic call by setting is: under setting [8], “inactive; negative”; (Test System: AMES SALMONELLA TYPHIMURIUM, Strain/Indicator: TA1537, Metabolic Activation: RAT, LIVER, S-9, PHENOBARBITAL AND 5,6-BENZOFLAVONE, Method: PREINCUBATION) “inactive; negative”; (Test System: E. COLI, Strain/Indicator: WP2 UVRA, Metabolic Activation: NONE, Method: PREINCUBATION) “inactive; negative”; (Test System: E. COLI, Strain/Indicator: WP2 UVRA, Metabolic Activation: RAT, LIVER, S-9, PHENOBARBITAL AND 5,6-BENZOFLAVONE, Method: PREINCUBATION) “inactive; negative”.

On to `COc1ccc(C=O)cc1OC`, for which the mutagenic call reads like this: (Test System: AMES SALMONELLA TYPHIMURIUM, Strain/Indicator: TA98, Metabolic Activation: HAMSTER, LIVER, S-9, AROCLOR 1254 (10%), Method: PREINCUBATION) “inactive; negative”; under setting [6], “inactive; negative”; under setting [1], “inactive; negative”; (Test System: AMES SALMONELLA TYPHIMURIUM, Strain/Indicator: TA98, Metabolic Activation: RAT, LIVER, S-9, AROCLOR 1254 (10%), Method: PREINCUBATION) “inactive; negative”; (Test System: AMES SALMONELLA TYPHIMURIUM, Strain/Indicator: TA100, Metabolic Activation: HAMSTER, LIVER, S-9, AROCLOR 1254 (10%), Method: PREINCUBATION) “inactive; negative”; under setting [7], “inactive; negative”. For the same compound, the mutagenic call was “inactive; negative” under setting [2]; “inactive; negative” (Test System: AMES SALMONELLA TYPHIMURIUM, Strain/Indicator: TA100, Metabolic Activation: RAT LIVER S-9, AROCLOR 1254, Method: PREINCUBATION); “inactive; negative” (Test System: AMES SALMONELLA TYPHIMURIUM, Strain/Indicator: TA100, Metabolic Activation: RAT, LIVER, S-9, AROCLOR 1254 (10%), Method: PREINCUBATION); “inactive; negative” (Test System: AMES SALMONELLA TYPHIMURIUM, Strain/Indicator: TA102, Metabolic Activation: NONE, Method: PREINCUBATION); “inactive; negative” (Test System: AMES SALMONELLA TYPHIMURIUM, Strain/Indicator: TA102, Metabolic Activation: RAT LIVER S-9, AROCLOR 1254, Method: PREINCUBATION); “inactive; negative” (Test System: AMES SALMONELLA TYPHIMURIUM, Strain/Indicator: TA104, Metabolic Activation: NONE, Method: PREINCUBATION). The mutagenic call reads like this: (Test System: AMES SALMONELLA TYPHIMURIUM, Strain/Indicator: TA104, Metabolic Activation: RAT LIVER S-9, AROCLOR 1254, Method: PREINCUBATION) “inactive; negative”; (Test System: AMES SALMONELLA TYPHIMURIUM, Strain/Indicator: TA1535, Metabolic Activation: HAMSTER, LIVER, S-9, AROCLOR 1254 (10%), Method: PREINCUBATION) “inactive; negative”; under setting [5], “inactive; negative”; (Test System: AMES SALMONELLA TYPHIMURIUM, Strain/Indicator: TA1535, Metabolic Activation: RAT, LIVER, S-9, AROCLOR 1254 (10%), Method: PREINCUBATION) “inactive; negative”; (Test System: AMES SALMONELLA TYPHIMURIUM, Strain/Indicator: TA1537, Metabolic Activation: HAMSTER, LIVER, S-9, AROCLOR 1254 (10%), Method: PREINCUBATION) “inactive; negative”; under setting [8], “inactive; negative”. The mutagenic call was “inactive; negative” (Test System: AMES SALMONELLA TYPHIMURIUM, Strain/Indicator: TA1537, Metabolic Activation: RAT, LIVER, S-9, AROCLOR 1254 (10%), Method: PREINCUBATION); “inactive; negative” (Test System: E. COLI, Strain/Indicator: CM561 LEXA, Metabolic Activation: NONE, Method: STANDARD PLATE); “inactive; negative” (Test System: E. COLI, Strain/Indicator: CM611 UVRA/LEXA, Metabolic Activation: NONE, Method: STANDARD PLATE); “inactive; negative” under setting [4].

For the compound `Cc1c2c3ccccc3nc-2n(C)c2c(C)cccc12`, the mutagenic call (Test System: AMES SALMONELLA TYPHIMURIUM, Strain/Indicator: TA97, Metabolic Activation: RAT, LIVER, S-9, AROCLOR 1254, Method: STANDARD PLATE) is “active; positive”.

The values above are taken from PubChem BioAssay AID1259407 (Chemical Carcinogenesis Research Information System (CCRIS), 2018).
